Reference: BindingDB's records for patent US20250313563 (The Broad Institute, 2025)
Several values for one entry are separate records, joined by “and”; a condition that tells them apart may be missing. Equal entries are not always repeated.

Key:
[1] = target: Glycogen synthase kinase-3 alpha (Homo sapiens, UniProt P49840); assay: TR-FRET Assay
How it was run: (§1)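 Signal is measured as TR-FRET between a terbium anti-phospho-Ser641 antibody and streptavidin-d2, added after an EDTA quench. Compounds are preincubated 30 min in assay buffer.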

[2] = target: Glycogen synthase kinase-3 beta (Homo sapiens, UniProt P49841); assay: TR-FRET Assay
How it was run: as §1

Sequence of Glycogen synthase kinase-3 alpha (P49840 whole entry): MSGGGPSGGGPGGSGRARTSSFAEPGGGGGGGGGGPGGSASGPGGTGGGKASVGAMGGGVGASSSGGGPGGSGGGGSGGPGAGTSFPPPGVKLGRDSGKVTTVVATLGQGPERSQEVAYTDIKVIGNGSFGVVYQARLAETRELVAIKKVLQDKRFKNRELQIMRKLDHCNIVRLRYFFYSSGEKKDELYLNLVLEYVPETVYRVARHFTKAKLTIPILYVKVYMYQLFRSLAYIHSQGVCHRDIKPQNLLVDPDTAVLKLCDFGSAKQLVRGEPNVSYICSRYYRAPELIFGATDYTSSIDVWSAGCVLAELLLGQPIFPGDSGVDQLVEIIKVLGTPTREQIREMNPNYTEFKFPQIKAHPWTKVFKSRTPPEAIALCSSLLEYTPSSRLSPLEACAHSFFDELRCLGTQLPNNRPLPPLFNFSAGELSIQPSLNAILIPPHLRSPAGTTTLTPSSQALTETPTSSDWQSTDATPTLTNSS
Sequence of Glycogen synthase kinase-3 beta (P49841 whole entry): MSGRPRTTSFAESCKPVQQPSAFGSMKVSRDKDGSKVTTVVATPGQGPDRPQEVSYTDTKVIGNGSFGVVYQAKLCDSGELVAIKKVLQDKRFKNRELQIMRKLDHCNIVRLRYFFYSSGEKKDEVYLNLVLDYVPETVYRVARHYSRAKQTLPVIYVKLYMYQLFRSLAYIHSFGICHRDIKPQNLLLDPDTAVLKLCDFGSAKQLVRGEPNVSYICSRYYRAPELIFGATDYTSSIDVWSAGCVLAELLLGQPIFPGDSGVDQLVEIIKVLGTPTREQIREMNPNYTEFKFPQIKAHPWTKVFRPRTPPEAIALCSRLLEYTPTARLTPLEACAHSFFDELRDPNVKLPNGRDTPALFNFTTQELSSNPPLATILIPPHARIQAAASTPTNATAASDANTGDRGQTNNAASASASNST

SMILES | IC50 [1] | IC50 [2]
CC[C@@]1(c2cccc(-c3ccncc3F)c2)C2=C(CC(C)(C)NC2=O)NC2N=NC(C(F)F)=C21 (stereo partly specified) [US20250313563, Compound 951599] | 100 to 1000 nM | 100 to 1000 nM
CC[C@]1(c2cccc(-c3cnn(Cc4cccc(C(F)(F)F)c4)c3)c2)C2=CN=NC2NC2=C1C(=O)NC(C)(C)C2 (stereo partly specified) [US20250313563, Compound 949513] | > 5000 nM | > 5000 nM
CC[C@]1(c2cccc(-c3ccnc(OC)c3F)c2)C2=CN=NC2NC2=C1C(=O)NC(C)(C)C2 (stereo partly specified) [US20250313563, Compound 948520] | 100 to 1000 nM | 1000 to 5000 nM
CC[C@@]1(c2cccc(-c3ccncc3)c2)C2=CN=NC2NC2=C1C(=O)CC(C)(C)[C@@H]2F (stereo partly specified) [US20250313563, Compound 959344] | > 5000 nM | > 5000 nM
CC[C@@]1(c2cccc(-c3cc(C)nn3C)c2)C2=CN=NC2NC2=C1C(=O)CC(C)(C)[C@@H]2F (stereo partly specified) [US20250313563, Compound 947657] | 100 to 1000 nM | > 5000 nM
CCC1(c2cccc(C(F)F)c2)C2=CN=NC2NC2=C1C(=O)NC(C)(C)C2 (stereo unspecified) [US20250313563, Compound 947864] | < 100 nM | 100 to 1000 nM
CC[C@]1(c2cccc(C(F)(F)F)c2)C2=CN=NC2NC2=C1C(=O)N(C(C)C)CC2 (stereo partly specified) [US20250313563, Compound 857336] | < 100 nM | 100 to 1000 nM
CCC1(c2cccc(C(C)C)c2)C2=C(CC(C)(C)NC2=O)NC2N=NC(C(F)(F)F)=C21 (stereo unspecified) [US20250313563, Compound 949747] | < 100 nM | < 100 nM
CC[C@]1(c2cccc(N(C)c3ncccn3)c2)C2=C(CC(C)(C)NC2=O)NC2N=NC(Cl)=C21 (stereo partly specified) [US20250313563, Compound 951592] | > 5000 nM | > 5000 nM
CC[C@]1(c2cccc(-c3ccnc(C)c3)c2)C2=CN=NC2NC2=C1C(=O)N[C@]1(CCCOC1)C2 (stereo partly specified) [US20250313563, Compound 948146] | 1000 to 5000 nM | > 5000 nM
CC(C)(C)CC1N=NC2=C1[C@](C)(c1cccc(S(=O)(=O)CC3CC3)c1)C1=C(CC(C)(C)NC1=O)N2 (stereo partly specified) [US20250313563, Compound 108005] | 100 to 1000 nM | 100 to 1000 nM
CC[C@]1(c2cccc(C3=C4CC=CC(Cl)=C4N=CC3)c2)C2=CN=NC2NC2=C1C(=O)NC(C)(C)C2 (stereo partly specified) [US20250313563, Compound 948650] | > 5000 nM | > 5000 nM
CC[C@]1(c2cccc(-c3ccnn3C)c2)C2=CN=NC2NC2=C1C(=O)N[C@](C)(COC)C2 (stereo partly specified) [US20250313563, Compound 947908] | 1000 to 5000 nM | > 5000 nM
CCC1(c2cccc(Br)c2)C2=CN=NC2NC2=C1C(=O)CC(C(F)(F)F)C2 (stereo unspecified) [US20250313563, Compound 819565] | 100 to 1000 nM | 100 to 1000 nM
CCC1(c2cccc(-c3cnnc(C)c3)c2)C2=CN=NC2NC2=C1C(=O)CC(C)(C)C2 (stereo unspecified) [US20250313563, Compound 926844] | < 100 nM | 100 to 1000 nM
CCC1(c2cccc(N(C)c3ccc(C(F)(F)F)nc3)c2)C2=CN=NC2NC2=C1C(=O)CC(C)(C)C2 (stereo unspecified) [US20250313563, Compound 932634] | < 100 nM | 100 to 1000 nM
CC[C@@]1(c2ccccc2)C2=CN=NC2NC2=C1C(=O)C[C@]1(CCNC1=O)C2 (stereo partly specified) [US20250313563, Compound 950160] | 1000 to 5000 nM | > 5000 nM
CC[C@@]1(c2cccc(-c3ccnc(C)c3)c2)C2=C(CC(C)(C)CC2=O)NC2N=NC(C)=C21 (stereo partly specified) [US20250313563, Compound 913018] | 100 to 1000 nM | 1000 to 5000 nM
CC[C@]1(c2cccc(Br)c2)C2=C(C[C@@H](C)CC2=O)NC2N=NC(C(F)(F)F)=C21 (stereo partly specified) [US20250313563, Compound 828847] | < 100 nM | < 100 nM
CC[C@@]1(c2ccccc2)C2=CN=NC2NC2=C1C(=O)[C@@H](F)C(C)(C)C2 (stereo partly specified) [US20250313563, Compound 826767] | > 5000 nM | > 5000 nM
CC[C@]1(c2cccc(-c3ccncc3)c2)C2=CN=NC2NC2=C1C(=O)CC(C)(C)[C@@H]2F (stereo partly specified) [US20250313563, Compound 959341] | 1000 to 5000 nM | 100 to 1000 nM
CC[C@@]1(c2cccc(C(F)(F)F)c2)C2=CN=NC2NC2=C1C(=O)N(C(C)C)CC2 (stereo partly specified) [US20250313563, Compound 857362] | > 5000 nM | > 5000 nM

Further lines, results first:

IC50 [1] | IC50 [2] | SMILES
100 to 1000 nM | 1000 to 5000 nM | C[C@H]1CC(=O)C2=C(C1)NC1=C(CN=N1)[C@@]2(C)c1ccccc1 [US20250313563, Compound 789334]
1000 to 5000 nM | > 5000 nM | CCC1(c2ccccc2)C2=C(N=NC2)NC2=C1C(=O)C1CCC21 (stereo unspecified) [US20250313563, Compound 861716]
100 to 1000 nM | 1000 to 5000 nM | CC1(C)CC(=O)C2=C(C1)NC1=C(CN=N1)C21CN(C2COC2)C1 [US20250313563, Compound 912076]
< 100 nM and 100 to 1000 nM | < 100 nM and 1000 to 5000 nM | CC1(C)CC(=O)C2=C(C1)NC1=C(CN=N1)[C@@]21CCN(S(=O)(=O)c2ccccc2)C1 [US20250313563, Compound 951788]
100 to 1000 nM | 1000 to 5000 nM | O=C1CC(c2ccccc2)CC2=C1C1(CCOCC1)C1=C(N=NC1)N2 (stereo unspecified) [US20250313563, Compound 893309]
> 5000 nM | > 5000 nM | C[C@@H]1COCC[C@@]12C1=CN=NC1NC1=C2C(=O)CC(C)(C)C1 (stereo partly specified) [US20250313563, Compound 924310]
1000 to 5000 nM | > 5000 nM | CC[C@]1(c2cccc(-c3cnn(C)c3)c2)C2=C(CC(C)(C)NC2=O)NC2N=NC(F)=C21 (stereo partly specified) [US20250313563, Compound 949002]
< 100 nM | < 100 nM | CCC1(c2cccc(S(=O)(=O)C3COC3)c2)C2=CN=NC2NC2=C1C(=O)CC(C)(C)C2 (stereo unspecified) [US20250313563, Compound 944017]
< 100 nM | < 100 nM | CCC1(c2cccc(S(=O)(=O)C3CCOCC3)c2)C2=CN=NC2NC2=C1C(=O)CC(C)(C)C2 (stereo unspecified) [US20250313563, Compound 927344]
100 to 1000 nM | 100 to 1000 nM and 1000 to 5000 nM | CC[C@@]1(c2cccc(-c3ccnc4c3CCC4)c2)C2=CN=NC2NC2=C1C(=O)CC(C)(C)C2 (stereo partly specified) [US20250313563, Compound 945606]
1000 to 5000 nM | > 5000 nM | CC[C@@]1(c2cccc(-c3c(F)cncc3OC)c2)C2=C(N=NC2)NC2=C1C(=O)C(C)(C)C2 [US20250313563, Compound 952562]
1000 to 5000 nM | 1000 to 5000 nM | CC1(C)CC(=O)C2=C(C1)NC1N=NC=C1C21CCCN(C(=O)c2ccccc2)CC1 (stereo unspecified) [US20250313563, Compound 889577]
< 100 nM | < 100 nM | CC(=O)N1C[C@]2(C[C@]3(CO2)C2=C(N=NC2)NC2=C3C(=O)CC(C)(C)C2)[C@H]1C [US20250313563, Compound 948439]
100 to 1000 nM | 1000 to 5000 nM | C[C@@H]1C[C@H](C)C[C@]2(C1)C1=C(N=NC1)NC1=C2C(=O)CC(C)(C)C1 [US20250313563, Compound 884113]
1000 to 5000 nM | 100 to 1000 nM | CC(C)(C)CC1=C2C(N=N1)NC1=C(C(=O)CC(C)(C)C1)[C@@]21COc2ccccc21 (stereo partly specified) [US20250313563, Compound 117093]
< 100 nM | < 100 nM | CCC1(c2cccc(-c3ccnn3CCC(C)C)c2)C2=CN=NC2NC2=C1C(=O)CC(C)(C)C2 (stereo unspecified) [US20250313563, Compound 929401]

IC50 [1] | IC50 [2] | SMILES
100 to 1000 nM | 100 to 1000 nM | O=C1CC(C(F)(F)F)CC2=C1C1(CCOCC1)C1=C(N=NC1)N2 (stereo unspecified) [US20250313563, Compound 889572]
100 to 1000 nM | 1000 to 5000 nM | Cn1cc([C@H]2CC[C@]3(CC2)C2=C(N=NC2)NC2=C3C(=O)CC(C)(C)C2)cn1 [US20250313563, Compound 949322]
100 to 1000 nM | 1000 to 5000 nM | CCC1(c2cccc(OC)c2)C2=C(N=NC2)NC2=C1C(=O)NC(C)(C)C2 (stereo unspecified) [US20250313563, Compound 948296]
< 100 nM | < 100 nM | Cc1cc(S(=O)(=O)N2CCC3(CC2)C2=CN=NC2NC2=C3C(=O)CC(C)(C)C2)ccc1Cl (stereo unspecified) [US20250313563, Compound 947475]
< 100 nM | 100 to 1000 nM | CC[C@@]1(c2cccc(N(C)C(=O)c3ccn(C)n3)c2)C2=CN=NC2NC2=C1C(=O)CC(C)(C)C2 (stereo partly specified) [US20250313563, Compound 929442]
< 100 nM | < 100 nM | CCC1(c2cccc(N3CCOCC3)c2)C2=C(CC(C)(C)CC2=O)NC2N=NC(C(F)(F)F)=C21 (stereo unspecified) [US20250313563, Compound 810507]
> 5000 nM | > 5000 nM | CC1N=NC2=C1C1(CC3(CCC3)C1)C1=C(CC(C)(C)CC1=O)N2 (stereo unspecified) [US20250313563, Compound 877295]
< 100 nM and 100 to 1000 nM | < 100 nM and 100 to 1000 nM | CC1(C)CC(=O)C2=C(C1)NC1=C(CN=N1)C21COC2(CN(C(=O)C(C)(F)F)C2)C1 (stereo unspecified) [US20250313563, Compound 947275]
< 100 nM | 100 to 1000 nM | CCC1(c2cccc(SC)c2)C2=CN=NC2NC2=C1C(=O)CC(C)(C)C2 (stereo unspecified) [US20250313563, Compound 810508]
100 to 1000 nM | 1000 to 5000 nM | CC[C@]1(c2cccc(C(F)(F)F)c2)C2=CN=NC2NC2=C1C(=O)CC(C)(C)C2 (stereo partly specified) [US20250313563, Compound 790754]
< 100 nM | < 100 nM | CC(C)CC(=O)N1CC2(C1)CC1(CO2)C2=C(N=NC2)NC2=C1C(=O)CC(C)(C)C2 (stereo unspecified) [US20250313563, Compound 947302]
< 100 nM | 100 to 1000 nM | Cc1cccc2c1CC[C@@]21C2=C(N=NC2)NC2=C1C(=O)CC(C)(C)C2 [US20250313563, Compound 913136]
100 to 1000 nM | 100 to 1000 nM | CC[C@@]1(c2cccc(-c3cn(C)nc3C)c2)C2=C(N=NC2)NC2=C1C(=O)C(C)(C)C2 [US20250313563, Compound 951702]
< 100 nM | < 100 nM | CCC1(c2cccc(-c3cnn(C)c3)c2)C2=C(CC(C)(C)CC2=O)NC2N=NC(C(F)(F)F)=C21 (stereo unspecified) [US20250313563, Compound 801445]
100 to 1000 nM | 100 to 1000 nM | C[C@@H]1C[C@H](C)C[C@@]2(C1)C1=C(N=NC1)NC1=C2C(=O)CC(C)(C)C1 [US20250313563, Compound 884114]
